Assay results: patent publication US7863293B2, “CXCR4 chemokine receptor binding compounds” (Genzyme Corporation, priority 2003, dated 2011)
Read-outs that look alike come from different tables or passages of the source.

Tests used:
WBC counts = settings: HIV-infected patients; infusion 2.5 or 5.0 μg/kg/hr
[1] = system: WBC and circulating CD34+ progenitor/stem cells; settings: Phase 1 study, single dose of 80 μg/kg; cited from earlier work
bone marrow stem cells = settings: rats, coronary ligation; given within hours after cardiac ischemia, with or without rhG-CSF
Procedure: Adult rats are anesthetized and a thoracotomy is performed. The descending branch of the left coronary artery is ligated and not reperfused. […] Control rats are not treated with the reagents. The animals are monitored at one-week intervals by echocardiography and MRI. […] On the day of sacrifice, the hemodynamic functions are analyzed for left ventricle-end diastolic pressure, left ventricle-developed pressure and the rate of rise and fall of left ventricle pressure. The heart is then arrested in diastole and perfused via the abdominal aorta to flush residual blood from the vascular network of the myocardium. […] Several slices are made through the fixed heart and these are embedded in paraffin and sections. The sections are stained and analyzed by light microscopy to determine the size of the infarct in the treated and control animals. […] The immunohistochemical analysis involves the identification of transcription factors and surface markers expressed in early stages of myocyte development.

[2] = system: progenitor cells (CFU-GM, BFU-E, CFU-GEMM) per mL of blood; settings: for Absolute Number Progenitors Per ML Blood, BFU-E / Absolute Number Progenitors Per ML Blood, CFU-GEMM / Absolute Number Progenitors Per ML Blood, CFU-GM: 1 hour post administration; for Absolute Progenitors Per ML Blood, BFU-E / Absolute Progenitors Per ML Blood, CFU-GEMM / Absolute Progenitors Per ML Blood, CFU-GM: 5 mg/Kg single s.c.; for Absolute Progenitors Per ML Blood, BFU-E / Absolute Progenitors Per ML Blood, CFU-GEMM / Absolute Progenitors Per ML Blood, CFU-GM / Fold Change Compared to Time 0, progenitors BFU-E / Fold Change Compared to Time 0, progenitors CFU-GEMM / Fold Change Compared to Time 0, progenitors GM: methylcellulose culture; for Fold Change Compared to Time 0, progenitors BFU-E / Fold Change Compared to Time 0, progenitors CFU-GEMM / Fold Change Compared to Time 0, progenitors GM: mice
Procedure: Progenitors were stimulated to form colonies in vitro with the combination of 1 U/ml rhu Epo, 50 ng/ml rhu SLF, 5% ^Vol/Vol pokeweed mitogen mouse spleen cell conditioned medium (PWMSCM), and 0.1 mM hemin. Plates were scored 7 days after incubation.

[3] = system: CFU-GM, BFU-E and CFU-GEMM progenitor cells; settings: 80 μg/kg s.c.; for Fold change compared to T = 0, BFU-E, methylcellulose culture, MEAN / Fold change compared to T = 0, CFU-GEMM, methylcellulose culture, MEAN / Fold change compared to T = 0, CFU-GM, methylcellulose culture, MEAN: average of 5 donors
Procedure: (§1) Five healthy human volunteers having initial white blood cell counts of 4,500-7,500 cells/mm^3 were used in the study. […] Blood samples were obtained via catheter prior to the dose, and at various times up to 24 hours after dosing.
(§2) All progenitor cell results are based on the scoring of 3 culture plates per assay per point.
(§3) For the progenitor cell numbers and cycling status, the numbers of CFU-GM, BFU-E and CFU-GEMM in methylcellulose cultures by stimulation of the cells with 1 Unit (U)/ml recombinant human (rhu) erythropoietin, 100 U/ml rhu granulocyte-macrophage colony stimulating factor (GM-CSF), 100 U/ml rhu interleukin-3 (IL-3) and 50 ng/ml rhu steel factor (SLF=stem cell factor (SCF)). The CFU-GM were also evaluated in agar cultures stimulated with 100 U/ml rhu GM-CSF and 50 ng/ml rhu SLF. For both types of assays, colonies were scored after 14 day incubation in a humidified atmosphere with 5% CO2 and lowered (5%) O2 tension. Cell cycling status of progenitors was measured using a high specific activity tritiated thymidine kill technique as previously described (Broxmeyer, H. E., et al., Exp. Hematol. (1989) 17:455-459).

CFU-GM progenitor cells = settings: average of 5 donors, 80 μg/kg s.c.
Procedure: as §1, §2, §3

white blood cell count = settings: all patients, i.v. 10-80 μg/kg; 5-10 hours after administration
Procedure: Eleven human patients having initial white blood cell counts of 4,000-6,500 cells/mm^3 were used in the study. […] Aliquots from this stock solution were added to 50-ml bags of 0.9% saline for intravenous injection in amounts to achieve the desired dosage levels (10 μg/kg-80 μg/kg).
The subjects described in this example already contained an indwelling peripheral intravenous catheter. […] Blood samples were obtained prior to the dose, and at various times up to 24 hours after dose administration.
Three patients were administered dosages of 10 μg/kg (open circles); 3 patients were administered dosages of 20 μg/kg (solid circles); 3 patients were administered 40 μg/kg (open triangles); and 2 patients were administered 80 μg/kg (closed triangles).

white blood cells = settings: human volunteers; 80 μg/kg s.c.
Procedure: as §1
The blood samples were evaluated for total white blood cells, CD34 positive progenitor cells (via FACS analysis) as a percentage of total white blood cells, as well as the absolute numbers per mL and cycling status of granulocyte macrophage (CFU-GM), erythroid (BFU-E), and multipotential (CFU-GEMM) progenitor cells.

In the case of `c1cc(CN2CCCNCCNCCCNCC2)ccc1CN1CCCNCCNCCCNCC1` [AMD-3100], the “time after discontinuation of the infusion at which WBC counts returned to baseline” value (WBC counts) is listed as 7 days, the WBC count [1] is listed as 17,000 /μl and the “effect on cardiac remodeling, scar formation and myocardium” value (bone marrow stem cells) is listed as “block to cardiac remodeling and scar formation”.

In the case of `c1cc(CN2CCCNCCNCCCNCC2)ccc1CN1CCCNCCNCCCNCC1` [AMD3100, 1,1′-[1,4-phenylene-bis(methylene)]-bis-1,4,8,11-tetraazacyclotetradecane], the “Absolute Number Progenitors Per ML Blood, BFU-E” value ([2]; 1 mg/kg single s.c.) is reported as 62 per ML blood, the “Absolute Number Progenitors Per ML Blood, CFU-GEMM” value ([2]; 1 mg/kg single s.c.) is reported as 27.1 per ML blood and the “Absolute Number Progenitors Per ML Blood, CFU-GM” value ([2]; 1 mg/kg single s.c.) is reported as 424 per ML blood. For the same molecule, the “Absolute Number Progenitors Per ML Blood, BFU-E” value ([2]; 2.5 mg/kg single s.c.) was 98.9 per ML blood, the “Absolute Number Progenitors Per ML Blood, CFU-GEMM” value ([2]; 2.5 mg/kg single s.c.) was 70.6 per ML blood and the “Absolute Number Progenitors Per ML Blood, CFU-GM” value ([2]; 2.5 mg/kg single s.c.) was 687.6 per ML blood. The “Absolute Progenitors Per ML Blood, BFU-E” value ([2]; 15″) was 134.5 per ML blood, the “Absolute Progenitors Per ML Blood, CFU-GEMM” value ([2]; 15″) was 90.4 per ML blood and the “Absolute Progenitors Per ML Blood, CFU-GM” value ([2]; 15″) was 791.6 per ML blood. For the same molecule, the “Absolute Progenitors Per ML Blood, BFU-E” value ([2]; 30″) was 209.3 per ML blood, the “Absolute Progenitors Per ML Blood, CFU-GEMM” value ([2]; 30″) was 113.5 per ML blood and the “Absolute Progenitors Per ML Blood, CFU-GM” value ([2]; 30″) was 1805.5 per ML blood. For the same molecule, the “Absolute Progenitors Per ML Blood, BFU-E” value ([2]; 120″) was 102.3 per ML blood, the “Absolute Progenitors Per ML Blood, CFU-GEMM” value ([2]; 120″) was 47.6 per ML blood and the “Absolute Progenitors Per ML Blood, CFU-GM” value ([2]; 120″) was 828.7 per ML blood. The “Absolute Number Progenitors Per ML Blood, BFU-E” value ([2]; 5 mg/kg single s.c.) was 92.8 per ML blood, the “Absolute Number Progenitors Per ML Blood, CFU-GEMM” value ([2]; 5 mg/kg single s.c.) was 69.5 per ML blood and the “Absolute Number Progenitors Per ML Blood, CFU-GM” value ([2]; 5 mg/kg single s.c.) was 608.4 per ML blood. For the same molecule, the “Absolute Number Progenitors Per ML Blood, BFU-E” value ([2]; 10 mg/kg single s.c.) was 120.5 per ML blood, the “Absolute Number Progenitors Per ML Blood, CFU-GEMM” value ([2]; 10 mg/kg single s.c.) was 79.8 per ML blood and the “Absolute Number Progenitors Per ML Blood, CFU-GM” value ([2]; 10 mg/kg single s.c.) was 825.6 per ML blood. The “Fold Change Compared to Time 0, progenitors BFU-E” value ([2]; time 2′) was 2.07 fold, the “Fold Change Compared to Time 0, progenitors CFU-GEMM” value ([2]; time 2′) was 1.85 fold and the “Fold Change Compared to Time 0, progenitors GM” value ([2]; time 2′) was 2.86 fold. For the same molecule, the “Fold Change Compared to Time 0, progenitors BFU-E” value ([2]; time 15″) was 2.72 fold, the “Fold Change Compared to Time 0, progenitors CFU-GEMM” value ([2]; time 15″) was 3.51 fold and the “Fold Change Compared to Time 0, progenitors GM” value ([2]; time 15″) was 2.73 fold. For the same molecule, the “Fold Change Compared to Time 0, progenitors BFU-E” value ([2]; time 30″) was 4.24 fold, the “Fold Change Compared to Time 0, progenitors CFU-GEMM” value ([2]; time 30″) was 4.41 fold and the “Fold Change Compared to Time 0, progenitors GM” value ([2]; time 30″) was 6.23 fold. For the same molecule, the “fold change from T=0, progenitors BFU-E, methylcellulose culture” value ([3]; P2, T = 1 hour) was 1.43 fold, the “Absolute # of Progenitors per ML, BFU-E” value ([3]; P4, T = 9 hours) was 1343 per ML and the “Fold change compared to T = 0, BFU-E, methylcellulose culture, MEAN” value (shortened to “Fold change compared to T = 0, BFU-E”) ([3]; T = 1 hour) was 1.99 fold. For the same molecule, the “Fold change compared to T = 0, CFU-GEMM, methylcellulose culture, MEAN” value (“Fold change compared to T = 0, CFU-GEMM” below) ([3]; T = 1 hour) was 2.32 fold, the “Fold change compared to T = 0, CFU-GM, methylcellulose culture, MEAN” value ([3]; T = 1 hour) was 4.77 fold and the “Fold change compared to T = 0, BFU-E” value ([3]; T = 3 hours) was 3.21 fold. For the same molecule, the “Fold change compared to T = 0, CFU-GEMM” value ([3]; T = 3 hours) was 4.33 fold, the “Fold change compared to T = 0, CFU-GM, methylcellulose culture, MEAN” value ([3]; T = 3 hours) was 13.66 fold and the “Fold change compared to T = 0, BFU-E” value ([3]; T = 6 hours) was 6.01 fold. For the same molecule, the “Fold change compared to T = 0, CFU-GEMM” value ([3]; T = 6 hours) was 10.07 fold, the “Fold change compared to T = 0, CFU-GM, methylcellulose culture, MEAN” value ([3]; T = 6 hours) was 21.71 fold and the “Fold change compared to T = 0, BFU-E” value ([3]; T = 9 hours) was 4.34 fold. The “Fold change compared to T = 0, CFU-GEMM” value ([3]; T = 9 hours) was 5.25 fold, the “Fold change compared to T = 0, CFU-GM, methylcellulose culture, MEAN” value ([3]; T = 9 hours) was 10.47 fold and the “Fold change compared to T = 0, BFU-E” value ([3]; T = 24 hours) was 1.26 fold. For the same molecule, the “Fold change compared to T = 0, CFU-GEMM” value ([3]; T = 24 hours) was 1.53 fold, the “Fold change compared to T = 0, CFU-GM, methylcellulose culture, MEAN” value ([3]; T = 24 hours) was 1.56 fold and the “Fold change compared to T = 0, CFU-GM, agar culture, MEAN” value (“Fold change … agar culture, MEAN” for short) (CFU-GM progenitor cells; T = 1 hour) was 2.81 fold. The “Fold change … agar culture, MEAN” value (CFU-GM progenitor cells; T = 3 hours) was 8.54 fold, the “Fold change … agar culture, MEAN” value (CFU-GM progenitor cells; T = 6 hours) was 17.93 fold and the “Fold change … agar culture, MEAN” value (CFU-GM progenitor cells; T = 9 hours) was 10.25 fold. The “Fold change … agar culture, MEAN” value (CFU-GM progenitor cells; T = 24 hours) was 2.08 fold, the “change in white blood cell count” value (white blood cell count) was “marked increase in white blood cell count” and the “time post-administration at which elevation of white blood cell count maximized” value (white blood cells) was 6 h.
